# Patent US20230045421A1 (priority 2018, published 2023)
# Tested on: HBV rcDNA
# Assay: HepDE19 assay with bDNA quantitation of HBV rcDNA
# Type: cell-based, hepatitis B virus
# Details: HepDE19 assay, inhibition of formation of rcDNA; read-out: DE-19bDNA EC50
# Protocol: HepDE19 Assay with bDNA Quantitation of HBV rcDNA:
# HepDE19 cell culture system is a HepG2 (human hepatocarcinoma) derived cell line that supports HBV DNA replication and cccDNA formation in a tetracycline (Tet)-regulated manner and produces HBV rcDNA and a detectable reporter molecule dependent on the production and maintenance of cccDNA (Guo, et al., 2007, J. Virol. 81:12472-12484).
# HepDE19 (50,000 cells/well) were plated in 96-well collagen-coated tissue-culture treated microtiter plates in DMEM/F12 medium supplemented with 10% fetal bovine serum, 1% penicillin-streptomycin and 1 μg/mL tetracycline and incubated in a humidified incubator at 37° C. and 5% CO2 overnight. Next day, the cells were switched to fresh medium without tetracycline and incubated for 4 hours at 37° C. and 5% CO2. The cells were treated with fresh Tet-free medium with compounds at concentrations starting at 25 μM and a serial, […], 8-point, titration series in duplicate. The final DMSO concentration in the assay was 0.5%. The plates were incubated for 7 days in a humidified incubator at 37° C. and 5% CO2. Following a 7 day-incubation, the level of rcDNA present in the inhibitor-treated wells was measured using a Quantigene 2.0 bDNA assay kit (Affymetrix, Santa Clara, Calif.) with HBV specific custom probe set and manufacturers instructions. Concurrently, the effect of compounds on cell viability was assessed using replicate plates, plated at a density of 5,000 cells/well and incubated for 4 days, to determine the ATP content as a measure of cell viability using the cell-titer glo reagent (CTG; Promega Corporation, Madison, Wis.) as per manufacturer's instructions. The plates were read using a Victor luminescence plate reader (PerkinElmer Model 1420 Multilabel counter) and the relative luminescence units (RLU) data generated from each well was calculated as % inhibition of the untreated control wells and analyzed using XL-Fit module in Microsoft Excel to determine EC50 and EC90 (bDNA) and CC50 (CTG) values using a 4-parameter curve fitting algorithm.
row,SMILES,EC50 [µM]
1,"CC(c1c[nH]c(=O)c2ccccc12)N(CCNCC(F)F)C(=O)Nc1ccc(F)c(Cl)c1 (single isomer, unassigned) [Compound 198, 3-(3-Chloro-4-fluorophenyl)-1-(2-((2,2-difluoroethyl)amino)ethyl)-1-(1-(1-oxo-1,2-dihydroisoquinolin-4-yl)ethyl)urea]",11.9
2,"CC(c1cn(Cc2c[nH]nn2)c(=O)c2ccccc12)N(C)C(=O)Nc1ccc(F)c(Cl)c1 (single isomer, unassigned) [Compound 276, 1-(1-(2-((1H-1,2,3-Triazol-4-yl)methyl)-1-oxo-1,2-dihydroisoquinolin-4-yl)ethyl)-3-(3-chloro-4-fluorophenyl)-1-methylurea]",2.7
3,"CCCn1cc(C(C)N(C)C(=O)Nc2ccc(F)c(Cl)c2)c2ccccc2c1=O (single isomer, unassigned) [Compound 185, 3-(3-Chloro-4-fluorophenyl)-1-methyl-1-(1-(1-oxo-2-propyl-1,2-dihydroisoquinolin-4-yl)ethyl)urea]",0.34
4,"CC(c1cn(C2CC2)c(=O)c2ccccc12)N(C)C(=O)Nc1ccc(F)c(Cl)c1 (single isomer, unassigned) [Compound 189, 3-(3-Chloro-4-fluorophenyl)-1-(1-(2-cyclopropyl-1-oxo-1,2-dihydroisoquinolin-4-yl)ethyl)-1-methylurea]",2.4
5,"CCCn1cc(C(C)N(C)C(=O)Nc2ccc(F)c(Cl)c2)c2ccccc2c1=O (single isomer, unassigned) [Compound 186, 3-(3-Chloro-4-fluorophenyl)-1-methyl-1-(1-(1-oxo-2-propyl-1,2-dihydroisoquinolin-4-yl)ethyl)urea]",8.4
6,"CC(c1c[nH]c(=O)c2ccccc12)N(CCO)C(=O)Nc1ccc(F)c(Cl)c1 (single isomer, unassigned) [Compound 197, 3-(3-Chloro-4-fluorophenyl)-1-(2-hydroxyethyl)-1-(1-(1-oxo-1,2-dihydroisoquinolin-4-yl)ethyl)urea]",0.08
7,"CCN(C(=O)Nc1ccc(F)c(Cl)c1)C(c1cnc(OC)c2ccccc12)C1CC1 (single isomer, unassigned) [Compound 40, 3-(3-Chloro-4-fluorophenyl)-1-(cyclopropyl(1-methoxyisoquinolin-4-yl)methyl)-1-ethylurea]",20

# Same assay, conditions: HepDE19 assay, inhibition of formation of relaxed circular DNA (rcDNA), bDNA quantitation; read-out: DE-19bDNA EC50
row,SMILES,EC50 [µM]
1,"CC(c1c[nH]c(=O)c2ccccc12)N(Cc1nccs1)C(=O)Nc1ccc(F)c(Cl)c1 (single isomer, unassigned) [Compound 310, 3-(3-Chloro-4-fluorophenyl)-1-(1-(1-oxo-1,2-dihydroisoquinolin-4-yl)ethyl)-1-(thiazol-2-ylmethyl)urea]",5.5
2,"CC(c1cnc(OCc2nc[nH]n2)c2cc(F)c(F)cc12)N(C)C(=O)Nc1ccc(F)c(Cl)c1 (single isomer, unassigned) [Compound 363, 1-(1-(1-((1H-1,2,4-Triazol-3-yl)methoxy)-6,7-difluoroisoquinolin-4-yl)ethyl)-3-(3-chloro-4-fluorophenyl)-1-methylurea]",0.014
3,"Cc1ncc(C(C)N(C)C(=O)Nc2ccc(F)c(Cl)c2)c2ccccc12 (single isomer, unassigned) [Compound 353, 3-(3-Chloro-4-fluorophenyl)-1-methyl-1-(1-(1-methylisoquinolin-4-yl)ethyl)urea]",0.19
4,"CC(C)CN(C(=O)Nc1ccc(F)cc1)C(C)c1c[nH]c(=O)c2c(F)cc(F)cc12 (single isomer, unassigned) [Compound 375, 1-(1-(6,8-Difluoro-1-oxo-1,2-dihydroisoquinolin-4-yl)ethyl)-3-(4-fluorophenyl)-1-isobutylurea]",1.7
5,"CC(c1c[nH]c(=O)c2c(F)c(F)ccc12)N(C)C(=O)Nc1cccc(F)c1F (single isomer, unassigned) [Compound 459, 1-(1-(7,8-Difluoro-1-oxo-1,2-dihydroisoquinolin-4-yl)ethyl)-3-(2,3-difluorophenyl)-1-methylurea]",0.2
6,"CC(c1cnc(C(N)=O)c2ccccc12)N(C)C(=O)Nc1ccc(F)c(Cl)c1 (single isomer, unassigned) [Compound 328, 4-(1-(3-(3-Chloro-4-fluorophenyl)-1-methylureido)ethyl)isoquinoline-1-carboxamide]",4.1
7,"CCN(C(=O)Nc1ccc(F)c(Cl)c1)C(C)c1c[nH]c(=O)c2c(F)c(F)ccc12 (single isomer, unassigned) [Compound 468, 3-(3-Chloro-4-fluorophenyl)-1-(1-(7,8-difluoro-1-oxo-1,2-dihydroisoquinolin-4-yl)ethyl)-1-ethylurea]",1.1
8,"CCN(C(=O)Nc1ccc(F)cc1)C(C)c1c[nH]c(=O)c2cc(F)c(F)cc12 (single isomer, unassigned) [Compound 403, 1-(1-(6,7-Difluoro-1-oxo-1,2-dihydroisoquinolin-4-yl)ethyl)-1-ethyl-3-(4-fluorophenyl)urea]",0.028
9,"CC(C)CN(C(=O)Nc1ccc(F)c(Cl)c1)C(C)c1c[nH]c(=O)c2c(F)cccc12 (single isomer, unassigned) [Compound 361, 3-(3-Chloro-4-fluorophenyl)-1-(1-(8-fluoro-1-oxo-1,2-dihydroisoquinolin-4-yl)ethyl)-1-isobutylurea]",0.012
10,"CC(c1c[nH]c(=O)c2cc(F)c(F)cc12)N(C)C(=O)Nc1ccc(F)c(C#N)c1 (single isomer, unassigned) [Compound 428, 3-(3-Cyano-4-fluorophenyl)-1-(1-(6,7-difluoro-1-oxo-1,2-dihydroisoquinolin-4-yl)ethyl)-1-methylurea]",1.6

# Same assay, conditions: Hepatitis B virus, HepDE19, HepDE19 assay, inhibition of formation of rcDNA; read-out: DE-19bDNA EC50
row,SMILES,EC50 [µM]
1,"COc1ncc(C(C)N(CCNCC(F)(F)F)C(=O)Nc2ccc(F)c(Cl)c2)c2ccccc12 (racemic) [Compound 158, 3-(3-Chloro-4-fluorophenyl)-1-(1-(1-methoxyisoquinolin-4-yl)ethyl)-1-(2-((2,2,2-trifluoroethyl)amino)ethyl)urea]",2.7
2,"C[C@H](c1c[nH]c(=O)c2ccccc12)N(C)C(=O)Nc1ccc(F)c(C(F)(F)F)c1 [Compound 89, (R)-3-(4-Fluoro-3-(trifluoromethyl)phenyl)-1-methyl-1-(1-(1-oxo-1,2-dihydroisoquinolin-4-yl)ethyl)urea]",0.32
3,"COc1ncc(CNC(=O)Nc2ccc(F)c(Cl)c2)c2ccccc12 [Compound 6, 1-(3-Chloro-4-fluorophenyl)-3-((1-methoxyisoquinolin-4-yl)methyl)urea]",9
4,"CCN(C(=O)Nc1ccc(F)c(Cl)c1)C(C)c1c[nH]c(=O)c2cnccc12 (racemic) [Compound 102, 3-(3-Chloro-4-fluorophenyl)-1-ethyl-1-(1-(1-oxo-1,2-dihydro-2,7-naphthyridin-4-yl)ethyl)urea]",0.1
5,"COCCN(Cc1cnc(OC)c2ccccc12)C(=O)Nc1ccc(F)c(Cl)c1 [Compound 41, 3-(3-Chloro-4-fluorophenyl)-1-(2-methoxyethyl)-1-((1-methoxyisoquinolin-4-yl)methyl)urea]",3.8

# Same assay, conditions: Hepatitis B virus, HepDE19, read-out: DE-19bDNA EC50 (μM), HepDE19 assay, inhibition of formation of rcDNA
row,SMILES,EC50 [µM]
1,"C[C@H](c1c[nH]c(=O)c2ccccc12)N(C)C(=O)Nc1cccc(F)c1 [Compound 93, (R)-3-(3-Fluorophenyl)-1-methyl-1-(1-(1-oxo-1,2-dihydroisoquinolin-4-yl)ethyl)urea]",0.52

# Same assay, conditions: Hepatitis B virus, HepDE19, read-out: DE-19bDNA EC50 (μM), HepDE19 assay, inhibition of formation of relaxed circular DNA (rcDNA), bDNA quantitation
row,SMILES,EC50 [µM]
1,"CC(c1c[nH]c(=O)c2c(F)c(F)ccc12)N(C)C(=O)N[C@H](C)c1ccccc1 (single isomer, unassigned) [Compound 488]",9

# Same assay, conditions: read-out: DE-19bDNA EC50; HepDE19 assay, inhibition of formation of rcDNA
row,SMILES,EC50 [µM]
1,"CC(c1c[nH]c(=O)c2ccccc12)N(CCCO)C(=O)Nc1ccc(F)c(Cl)c1 (single isomer, unassigned) [Compound 130, 3-(3-Chloro-4-fluorophenyl)-1-(3-hydroxypropyl)-1-(1-(1-oxo-1,2-dihydroisoquinolin-4-yl)ethyl)urea]",7.9

# Same assay, conditions: read-out: DE-19bDNA EC50; HepDE19 assay, inhibition of formation of relaxed circular DNA (rcDNA), bDNA quantitation
row,SMILES,EC50 [µM]
1,"CCN(C(=O)Nc1ccccc1)C(C)c1c[nH]c(=O)c2c(F)c(F)ccc12 (single isomer, unassigned) [Compound 466, 1-(1-(7,8-Difluoro-1-oxo-1,2-dihydroisoquinolin-4-yl)ethyl)-1-ethyl-3-phenylurea]",8.5
2,"CC(c1c[nH]c(=O)c2c(F)c(F)ccc12)N(C)C(=O)Nc1cccc(Cl)c1 (single isomer, unassigned) [Compound 460, 3-(3-Chlorophenyl)-1-(1-(7,8-difluoro-1-oxo-1,2-dihydroisoquinolin-4-yl)ethyl)-1-methylurea]",0.61
